Broadly, the Kd is the free concentration of one partner at which half of the binding sites on the other are occupied at equilibrium, for simple one-to-one binding. Lower therefore signals tighter binding.

This is an account of results in US12043632B2, “6-heteroaryloxy benzimidazoles and azabenzimidazoles as JAK2 inhibitors” (Ajax Therapeutics, Inc., priority 2020, dated 2024).

Structures are written as SMILES.

The target of the assay is T1, JAK2 (JH1domain-catalytic, Y1007F,Y1008F) kinase (Homo sapiens, UniProt O60674, Y1007F/Y1008F).
T1 construct: JAK2 (JH1domain-catalytic, Y1007F,Y1008F) kinase was expressed as N-terminal fusion; made in house; host or cells: transiently transfected HEK293 cells
T1 sequence (O60674 849-1124 Y1007F/Y1008F limits assumed): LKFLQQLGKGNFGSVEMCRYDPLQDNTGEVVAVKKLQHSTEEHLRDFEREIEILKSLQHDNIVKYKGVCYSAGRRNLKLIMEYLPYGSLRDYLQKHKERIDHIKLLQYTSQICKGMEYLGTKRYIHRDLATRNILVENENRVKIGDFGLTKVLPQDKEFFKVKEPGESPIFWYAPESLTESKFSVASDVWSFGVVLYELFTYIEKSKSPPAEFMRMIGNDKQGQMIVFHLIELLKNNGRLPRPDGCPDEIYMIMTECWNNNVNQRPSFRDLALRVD
As to the kind of experiment: JAK2 JH1 Domain Binding Assay. To be noted: qPCR readout. A general note: In qPCR the cycle at which signal appears reflects the starting amount.
The compound `COc1c(Oc2cnn3ccccc23)cnc2nc(Nc3cc(C4CC4)cn([C@H]4C[C@H](O)C4)c3=O)n(C)c12` [Example I-111, trans-5-cyclopropyl-1-(3-hydroxycyclobutyl)-3-((7-methoxy-1-methyl-6-(pyrazolo[1,5-a]pyridin-3-yloxy)-1H-imidazo[4,5-b]pyridin-2-yl)amino)pyridin-2(1H)-one] gave a dissociation constant Kd of less than 10 nM.

`COc1c(Oc2cnn3ccccc23)cnc2nc(Nc3cc(C4CC4)cn([C@H]4C[C@@H](O)C4)c3=O)n(C)c12` [Example I-112, cis-5-cyclopropyl-1-(3-hydroxycyclobutyl)-3-((7-methoxy-1-methyl-6-(pyrazolo[1,5-a]pyridin-3-yloxy)-1H-imidazo[4,5-b]pyridin-2-yl)amino)pyridin-2(1H)-one] yielded a Kd of less than 10 nM.

Consider `Cn1cc(-n2cc(C3CC3)cc(Nc3nc4ncc(Oc5cnn6ccccc56)c(Cl)c4n3C)c2=O)cn1` [Example I-115, 3-((7-chloro-1-methyl-6-(pyrazolo[1,5-a]pyridin-3-yloxy)-1H-imidazo[4,5-b]pyridin-2-yl)amino)-5-cyclopropyl-1-(1-methyl-1H-pyrazol-4-yl)pyridin-2(1H)-one], for which the equilibrium dissociation constant (Kd) is less than 10 nM.

In turn, `Cn1nc(C2CC2)cc(Nc2nc3ncc(Oc4cnn5ccccc45)c(Cl)c3n2C)c1=O` [Example I-116, 4-((7-chloro-1-methyl-6-(pyrazolo[1,5-a]pyridin-3-yloxy)-1H-imidazo[4,5-b]pyridin-2-yl)amino)-6-cyclopropyl-2-methylpyridazin-3(2H)-one] had a Kd of less than 10 nM.

In turn, `Cn1c(Nc2cc(C3CC3)cn(CCCN3CCC(F)(F)C3)c2=O)nc2ncc(Oc3cnn4ccncc34)c(Cl)c21` [Example I-117, 3-((7-chloro-1-methyl-6-(pyrazolo[1,5-a]pyrazin-3-yloxy)-1H-imidazo[4,5-b]pyridin-2-yl)amino)-5-cyclopropyl-1-(3-(3,3-difluoropyrrolidin-1-yl)propyl)pyridin-2(1H)-one] displayed a dissociation constant Kd of less than 10 nM.

`Cn1c(Nc2cc(C(F)(F)F)cn(CCCN3CCC(F)(F)C3)c2=O)nc2ncc(Oc3cnn4ccncc34)c(Cl)c21` [Example I-118, 3-((7-chloro-1-methyl-6-(pyrazolo[1,5-a]pyrazin-3-yloxy)-1H-imidazo[4,5-b]pyridin-2-yl)amino)-1-(3-(3,3-difluoropyrrolidin-1-yl)propyl)-5-(trifluoromethyl)pyridin-2(1H)-one] yielded a Kd of 10 to 50 nM.

For the compound `CN1CCN(Cc2ccc(Nc3nc4ncc(Oc5cnn6ccncc56)c(Cl)c4n3C)cc2C(F)(F)F)CC1` [Example I-120, 7-chloro-1-methyl-N-(4-((4-methylpiperazin-1-yl)methyl)-3-(trifluoromethyl)phenyl)-6-(pyrazolo[1,5-a]pyrazin-3-yloxy)-1H-imidazo[4,5-b]pyridin-2-amine], the Kd was less than 10 nM.

The compound `COc1c(Oc2cnn3ccccc23)cnc2nc(Nc3cc(C4CC4)cn(CCCN4CCC(F)(F)C4)c3=O)n(C)c12` [Example I-123, 5-cyclopropyl-1-(3-(3,3-difluoropyrrolidin-1-yl)propyl)-3-((7-methoxy-1-methyl-6-(pyrazolo[1,5-a]pyridin-3-yloxy)-1H-imidazo[4,5-b]pyridin-2-yl)amino)pyridin-2(1H)-one] yielded a dissociation constant (Kd) of 10 to 50 nM.

As to `Cn1c(Nc2cc3n(n2)CCCC3(C)C)nc2ncc(Oc3cnn4ccnc(OCCO)c34)c(Cl)c21` [Example I-124, 2-((3-((7-chloro-2-((4,4-dimethyl-4,5,6,7-tetrahydropyrazolo[1,5-a]pyridin-2-yl)amino)-1-methyl-1H-imidazo[4,5-b]pyridin-6-yl)oxy)pyrazolo[1,5-a]pyrazin-4-yl)oxy)ethan-1-ol], the Kd was less than 10 nM.

Consider `CNc1nccn2ncc(Oc3cnc4nc(Nc5cc6n(n5)CCCC6(C)C)n(C)c4c3Cl)c12` [Example I-125, 7-chloro-N-(4,4-dimethyl-4,5,6,7-tetrahydropyrazolo[1,5-a]pyridin-2-yl)-1-methyl-6-((4-(methylamino)pyrazolo[1,5-a]pyrazin-3-yl)oxy)-1H-imidazo[4,5-b]pyridin-2-amine], for which the Kd fell in the range of 10 to 50 nM.

`Cn1c(Nc2cc(C3CC3)nn(CCO)c2=O)nc2ncc(Oc3cnn4ccccc34)c(Cl)c21` [Example I-126, 4-((7-chloro-1-methyl-6-(pyrazolo[1,5-a]pyridin-3-yloxy)-1H-imidazo[4,5-b]pyridin-2-yl)amino)-6-cyclopropyl-2-(2-hydroxyethyl)pyridazin-3(2H)-one] displayed a Kd of less than 10 nM.

Compound `Cn1cc(C(F)(F)F)cc(Nc2nc3ncc(Oc4cnn5ccnc(OCCN6CCOCC6)c45)c(Cl)c3n2C)c1=O` [Example I-127, 3-((7-chloro-1-methyl-6-((4-(2-morpholinoethoxy)pyrazolo[1,5-a]pyrazin-3-yl)oxy)-1H-imidazo[4,5-b]pyridin-2-yl)amino)-1-methyl-5-(trifluoromethyl)pyridin-2(1H)-one] came in with a Kd of 10 to 50 nM.

Regarding `CNc1nccn2ncc(Oc3cnc4nc(Nc5cc(C(F)(F)F)cn(C)c5=O)n(C)c4c3Cl)c12` [Example I-128, 3-((7-chloro-1-methyl-6-((4-(methylamino)pyrazolo[1,5-a]pyrazin-3-yl)oxy)-1H-imidazo[4,5-b]pyridin-2-yl)amino)-1-methyl-5-(trifluoromethyl)pyridin-2(1H)-one], the Kd was less than 10 nM.

Compound `Cn1c(Nc2cc(C3CC3)cn(CCCN3CCCC(F)(F)C3)c2=O)nc2ncc(Oc3cnn4ccncc34)c(Cl)c21` [Example I-129, 3-((7-chloro-1-methyl-6-(pyrazolo[1,5-a]pyrazin-3-yloxy)-1H-imidazo[4,5-b]pyridin-2-yl)amino)-5-cyclopropyl-1-(3-(3,3-difluoropiperidin-1-yl)propyl)pyridin-2(1H)-one] showed an equilibrium dissociation constant (Kd) of 10 to 50 nM.

`COc1c(Oc2cnc3cnc(C4CC4)n3c2)cnc2nc(Nc3cc(C(C)(C)C)n([C@H]4C[C@H](O)C4)n3)n(C)c12` [Example I-130, (1r,3r)-3-(5-(tert-butyl)-3-((6-((6-cyclopropylimidazo[1,5-a]pyrimidin-3-yl)oxy)-7-methoxy-1-methyl-1H-imidazo[4,5-b]pyridin-2-yl)amino)-1H-pyrazol-1-yl)cyclobutan-1-ol] gave an equilibrium dissociation constant (Kd) of 10 to 50 nM.

The compound `Cn1c(Nc2cc(C3CC3)cn(CC#N)c2=O)nc2ncc(Oc3cnn4ccncc34)c(Cl)c21` [Example I-132, 2-(3-((7-chloro-1-methyl-6-(pyrazolo[1,5-a]pyrazin-3-yloxy)-1H-imidazo[4,5-b]pyridin-2-yl)amino)-5-cyclopropyl-2-oxopyridin-1(2H)-yl)acetonitrile] returned a Kd of less than 10 nM.

Compound `CNc1nccn2ncc(Oc3cnc4nc(Nc5cc(C6CC6)cn(C)c5=O)n(C)c4c3Cl)c12` [Example I-134, 3-((7-chloro-1-methyl-6-((4-(methylamino)pyrazolo[1,5-a]pyrazin-3-yl)oxy)-1H-imidazo[4,5-b]pyridin-2-yl)amino)-5-cyclopropyl-1-methylpyridin-2(1H)-one] came in with a Kd of less than 10 nM.

Take `COCCOc1nccn2ncc(Oc3cnc4nc(Nc5cc(C6CC6)cn(C)c5=O)n(C)c4c3Cl)c12` [Example I-135, 3-((7-chloro-6-((4-(2-methoxyethoxy)pyrazolo[1,5-a]pyrazin-3-yl)oxy)-1-methyl-1H-imidazo[4,5-b]pyridin-2-yl)amino)-5-cyclopropyl-1-methylpyridin-2(1H)-one]: the Kd is less than 10 nM.
